From patent publication US9012611B2, “Use of 3,8,12,14, 17,20-oxo-substituted pregnene glycosides in the preparation of healthcare products, food additives and pharmaceuticals for the inhibition of appetite” (Institute of Materia Medica, Chinese Academy of Sciences, priority 2010, dated 2015)

How the values were obtained:
female Wistar rat = assay: Animal test in vivo: average food consumption (appetite inhibition); details: crude extract 300 mg/kg; for Average food consumptions: Table 1, positive control 15 mg/kg, others 50 mg/kg; for average food consumptions compared with the blank control group (in words): during the administration of the drugs, pure glycosides 50 mg/kg
Procedure: (§1) 6-7 weeks-old female Wistar rat (purchased from Shanghai Laboratory Animal Center of Chinese Academy of Sciences)(weight: 110-150 g) was raised alone in suspended metal cage. After the experimental rat was obtained, it was checked to make sure whether they were abnormal or had obvious disease signs. The rat can freely obtain the drinking-water and feed for rodent (RM1(E)AQC). The feeding cage was controlled to receive 12 h illumination (from 07:00 to 19:00) and to be in a dark environment for 12 h, and the room temperature and relative humidity were controlled to be 21±3° C. and 55±15% respectively and not to deviate the upper and lower limit. The rats were randomly divided into groups depending on the body weight according to random number table to make the average weight in each group are approximately equal. Before the test, the rats were pre-trained suitably for one week (from −7th day to −1st day) during which the consumptions of feed and drinking water were recorded.
(§2) Each group of drug to be tested, positive control group, and blank control group consisted of 5 rats, respectively. The tested drug and positive control drug were mixed with wheaten starch before the administration and formulated to suspension with required doses according to 10 mL/kg of administration volume. The positive control drug was sibutramine hydrochloride and the administration dosage was 15 mg/kg body weight. In the blank control group, only equal amount of starch was used to formulate suspension for administration by […] in a same volume. The administration time is the 1st day, 2nd day and 3rd day. The body weight of the rat, the consumption of the feed (the weight of the feeding hopper) and consumption of the drinking water (bottle weight) were recorded from the −7th day to the 7th day.

[1] = Animal test in vivo: average body weight; parameters: species or system rat; details: crude extract 300 mg/kg; for Average body weight: Table 3, positive control 15 mg/kg, others 50 mg/kg; for body weight compared with the blank control group (in words): during the administration of the drugs, pure glycosides 50 mg/kg
Procedure: as §1, §2

[2] = 4th day (after administration on days 1-3)
[3] = 5th day (after administration on days 1-3)
[4] = 6th day (after administration on days 1-3)
[5] = 7th day (after administration on days 1-3)
[6] = −1st day (before administration)
[7] = −2nd day (before administration)
[8] = −3rd day (before administration)
[9] = −4th day (before administration)
[10] = −5th day (before administration)
[11] = −6th day (before administration)
[12] = −7th day (before administration)

Row | SMILES | Average food consumptions (female Wistar rat; 1st day (administration day)) [g] | Average food consumptions (female Wistar rat; 2nd day (administration day)) [g] | Average food consumptions (female Wistar rat; 3rd day (administration day)) [g] | Average food consumptions (female Wistar rat; [2]) [g] | Average food consumptions (female Wistar rat; [3]) [g] | Average food consumptions (female Wistar rat; [4]) [g] | Average food consumptions (female Wistar rat; [5]) [g] | average food consumptions compared with the blank control group (in words) (female Wistar rat) | Average food consumptions (female Wistar rat; [6]) [g] | Average food consumptions (female Wistar rat; [7]) [g] | Average food consumptions (female Wistar rat; [8]) [g] | Average food consumptions (female Wistar rat; [9]) [g] | Average food consumptions (female Wistar rat; [10]) [g] | Average food consumptions (female Wistar rat; [11]) [g] | Average food consumptions (female Wistar rat; [12]) [g] | Average body weight ([1]; 1st day (administration day)) [g] | Average body weight ([1]; 2nd day (administration day)) [g] | Average body weight ([1]; 3rd day (administration day)) [g] | Average body weight [1, 2] [g] | Average body weight [1, 3] [g] | other results
1 | CO[C@H]1C[C@H](O[C@H]2[C@@H](OC)C[C@H](O[C@H]3CC[C@@]4(C)C(=CC[C@]5(O)[C@@H]4C[C@@H](OC(=O)/C=C/c4ccccc4)[C@@]4(C)[C@]5(O)CC[C@@]4(O)C(C)=O)C3)O[C@@H]2C)O[C@@H](C)[C@H]1O[C@H]1C[C@H](OC)[C@H](O[C@H]2C[C@@H](OC)[C@@H](O[C@@H]3O[C@H](CO)[C@@H](O)[C@H](O)[C@H]3O)[C@H](C)O2)[C@@H](C)O1 [Cynauricuoside A, cynauricuoside A] | 9.2 | 10.8 | 9.2 | 15.2 | 13.6 | 13.2 | 13.6 | greatly less than those in the blank control group | 12.4 | 14.4 | 13.6 | 14 | 13.6 | 11.2 | 14 | 158.8 | 156.4 | 153.6 | 156.8 | 158.4 | Average body weight [1, 4]: 164.4 g; Average body weight [1, 5]: 166.8 g; body weight compared with the blank control group (in words) [1]: the tendency of body weight change was greatly different; Average body weight [1, 6]: 163.6 g; Average body weight [1, 7]: 160.4 g; Average body weight [1, 8]: 158 g; Average body weight [1, 9]: 156 g; Average body weight [1, 10]: 154.4 g; Average body weight [1, 11]: 152.8 g; Average body weight [1, 12]: 150 g
2 | CO[C@H]1C[C@H](O[C@H]2[C@@H](OC)C[C@H](O[C@H]3CC[C@@]4(C)C(=CC[C@]5(O)[C@@H]4C[C@@H](OC(=O)/C=C(\C)C(C)C)[C@@]4(C)[C@]5(O)CC[C@@]4(O)C(C)=O)C3)O[C@@H]2C)O[C@@H](C)[C@H]1O[C@H]1C[C@H](OC)[C@H](O[C@H]2C[C@@H](OC)[C@@H](O[C@@H]3O[C@H](CO)[C@@H](O)[C@H](O)[C@H]3O)[C@H](C)O2)[C@@H](C)O1 [Wilfoside C1G, wilfoside C1G] | 14.4 | 12.4 | 14.4 | 14.8 | 17.6 | 12.4 | 15.2 | no great differences | 14 | 13.6 | 14.8 | 15.2 | 13.6 | 13.6 | 13.6 | 163.6 | 163.2 | 165.2 | 166.4 | 170.4 | Average body weight [1, 4]: 169.6 g; Average body weight [1, 5]: 174.4 g; body weight compared with the blank control group (in words) [1]: no great differences; Average body weight [1, 6]: 162.8 g; Average body weight [1, 7]: 157.6 g; Average body weight [1, 8]: 155.6 g; Average body weight [1, 9]: 153.2 g; Average body weight [1, 10]: 151.2 g; Average body weight [1, 11]: 147.6 g; Average body weight [1, 12]: 145.6 g
